{"source": "patent US11464765B2", "about": "“Use of an N-substituted pyridyl benzisoselazolone compound” (SHANGHAITECH UNIVERSITY, priority 2020, dated 2022)", "key": {"[1]": {"test_system": "novel coronavirus (SARS-CoV-2)", "test": "in vitro cell-virus assay", "assay_type": "cell-based"}, "[2]": {"settings": "rats; cited from earlier work"}, "[3]": {"settings": "mice; cited from earlier work"}, "[4]": {"settings": "human, in vivo; cited from earlier work"}}, "note": "Where two headings read alike, the source gives them in different places."}
{"smiles": "O=c1c2ccccc2[se]n1-c1ccccc1", "note": "[ebselen, Ebselen]", "values": [{"measurement": "replication ability of SARS-CoV-2 in cells", "setting": "[1]; FIG. 4", "result": "significantly inhibits the replication ability of SARS-CoV-2 in cells"}, {"measurement": "cytopathy caused by novel coronavirus infection", "setting": "[1]; infected cells, FIG. 3", "result": "can prevent cytopathy caused by novel coronavirus infection"}, {"measurement": "oral lethal dose", "setting": "[2]", "result": "> 4600", "unit": "mg/kg"}, {"measurement": "oral lethal dose", "setting": "[3]", "result": "> 2150", "unit": "mg/kg"}, {"measurement": "clinical safety and tolerability", "setting": "[4]", "result": "safe and well tolerated"}]}
